From patent publication US20090291945A1, “CYSTEINE PROTEASE INHIBITORS” (Teijin Pharma Limited, priority 2008, published 2009)

What was measured:
[1] = Metabolic stability test using human liver microsome; format: in vitro ADME; conditions: NADPH, 37° C., 25 minutes versus 0 minute, LC/MS peak area
Protocol: For the compounds synthesized according to the method of the above Examples and the compounds of formula (B) (the compounds disclosed in WO2002/070517), the metabolic stability test using the human liver microsome was performed and the residual rate of each compound was calculated.
To a human liver microsome solution (950 μL) was added a test compound solution (10 μL, 100 μM, acetonitrile solution) on an ice bath and the solution was divided into two equal parts, solution A and solution B. Note that the composition of the human liver microsome solution was as follows.
20 mg/mL protein human liver microsome (Xenotech LLC Lenexa, US): 10 μL 500 mM potassium phosphate buffer solution (pH 7.4): 200 μL 10 mM EDTA solution: 100 μL 60 mM MgCl2 solution: 50 μL 100 mM glucose-6-phosphate solution: 50 μL 100 I.U./mL glucose-6-phosphate dehydrogenase solution: 10 μL purified water: 530 μL
To the solution A (480 μL) was added acetonitrile (500 μL) on an ice bath, and then 25 mM NADPH solution (20 μL) was added. After vortexing, the mixture was centrifuged (3,000 rpm) at 4° C. for 10 minutes, and the supernatant was taken as the sample at the reaction time of 0 minute.
To the solution B (480 μL) was added 25 mM NADPH solution (20 μL). The mixture was incubated at 37° C. for 25 minutes. The reaction was quenched with acetonitrile (500 μL) and vortexing. The mixture was centrifuged (3,000 rpm) at 4° C. for 10 minutes, and the supernatant was taken as the sample at the reaction time of 25 minutes.
LC/MS measurement was performed for the samples at the reaction time of 0 minute and the reaction time of 25 minutes. Based on the peak area of the target molecular weight in the MS measurement, the residual rate of the sample at the reaction time of 25 minutes to the sample at the reaction time of 0 minute was calculated in percentage.

cathepsin K = target: T1, cathepsin K (Homo sapiens, UniProt P43235); assay: Cathepsin K inhibitory activity (fluorescent substrate Z-Leu-Arg-MCA); format: biochemical; conditions: enzyme expressed in HEK293T; 15 min preincubation, 30 min reaction at room temperature, pH 5.5; read-out: Activity Intensity (cathepsin K inhibitory activity, pIC50 class) (converted)
T1 construct: the active enzyme was obtained as the enzyme fraction by using detergent containing lysis buffer; made in house; host or cells: HEK293T (GenHunter Corporation), transient expression; detergent lysate used as enzyme fraction
T1 sequence (P43235 115-329): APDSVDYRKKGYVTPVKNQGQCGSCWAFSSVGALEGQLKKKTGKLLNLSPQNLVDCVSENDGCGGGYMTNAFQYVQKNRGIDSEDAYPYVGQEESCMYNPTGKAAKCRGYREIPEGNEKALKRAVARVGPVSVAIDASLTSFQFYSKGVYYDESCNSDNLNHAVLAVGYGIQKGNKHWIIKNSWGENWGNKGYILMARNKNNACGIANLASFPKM
Procedure, shortened: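 Enzyme was HEK293T-expressed cathepsin K in pH 5.5 acetate buffer with 2 mM DTT, preincubated 15 min at room temperature with compound. Reaction started with Z-Leu-Arg-MCA (solution prepared at 10 μM), run 30 min, and AMC fluorescence read at 355/460 nm. IC50 taken from the curve of % inhibition vs DMSO.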

SMILES | Residual Rate at 25 minutes (%) [1] | IC50 (cathepsin K)
CC[C@@H](CNc1ccc(N2CCO[C@@H](C(=O)O)C2)cc1)NC(=O)[C@H](CC(C)C)N[C@@H](c1ccccc1)C(F)(F)F [Compound 150] | 96% | ≤ 3.16 nM
CC[C@@H](CNc1ccc(N2CCC[C@H](C(=O)O)C2)cc1)NC(=O)[C@H](CC(C)(C)F)N[C@@H](c1ccccc1)C(F)(F)F [Compound 151] | 90% | ≤ 3.16 nM
CC[C@@H](CNc1ccc(N2CCC[C@@H](C(=O)O)C2)cc1)NC(=O)[C@H](CC(C)(C)F)N[C@@H](c1ccccc1)C(F)(F)F [Compound 152] | 88% | ≤ 3.16 nM
CC[C@@H](CNc1ccc(N2CCC(C(=O)O)CC2)cc1)NC(=O)[C@H](CC(C)C)N[C@@H](Cc1ccccc1)C(F)(F)F [Compound 153] | 53% | 3.16 to 31.6 nM

More lines, now with the values ahead:

Residual Rate at 25 minutes (%) [1] | IC50 (cathepsin K) | SMILES
74% | ≤ 3.16 nM | CC[C@@H](CNc1ccc(N2CCC(C)(C(=O)O)CC2)cc1)NC(=O)[C@H](CC(C)C)N[C@@H](c1ccccc1)C(F)(F)F [Compound 154]
31% | ≤ 3.16 nM | CC[C@@H](CNc1ccc(OCCCC(=O)O)cc1OC)NC(=O)[C@H](CC(C)C)N[C@@H](c1ccccc1)C(F)(F)F [Compound 155]
100% | ≤ 3.16 nM | CC(C)C[C@H](N[C@@H](c1ccccc1)C(F)(F)F)C(=O)N[C@@H](CCCC(=O)O)CNc1ccc(N2CCOCC2)cc1 [Compound 159, (5S)-5-{(2S)-2-[((1S)-2,2,2-trifluoro-1-phenylethyl)amino]-4-methylpentanoylamino}-6-[(4-morpholin-4-ylphenyl)amino]hexanoic acid]
90% | ≤ 3.16 nM | CC(C)(F)C[C@H](N[C@@H](c1ccccc1)C(F)(F)F)C(=O)N[C@@H](CCCC(=O)O)CNc1ccc(N2CCOCC2)cc1 [Compound 160, (5S)-5-{(2S)-2-[((1S)-2,2,2-trifluoro-1-phenylethyl)amino]-4-fluoro-4-methylpentanoylamino}-6-[(4-morpholin-4-ylphenyl)amino]hexanoic acid]
